This assay concerns the target T1, hmGluR1 receptor (Homo sapiens, UniProt Q13255).
T1 construct: expressed in transfected cells; host or cells: CHO
The assay can be described thus: IC50 determination: intracellular calcium mobilization (FLIPR) upon Quisqualate stimulation in CHO cell line stably expressing hmGluR1. In kind it is cell-based. As to conditions: CHO cells expressing hmGluR1, against Quisqualate 1 μM (EC80), compounds added 10 minutes before Quisqualate. On the procedure:
A CHO cell line stably expressing hmGluR1 receptor was established. One day prior to assay, cells were split in growth media at concentration of 50,000 cells/well in a volume of 100 μl and seeded into black clear-bottom 96-well plates. After two to six hours, when cells were well attached to the plate, growth medium was replaced with assay medium (100 μL) consisting of DMEM high glucose, supplemented with GPT (1 U/mL) and sodium pyruvate, 1 mM. Following overnight incubation, medium was discarded and cells were loaded for 2 hours with dye from the Calcium 3 Assay Reagent Kit (Molecular Devices, # R8033), prepared according to manufacturers' instructions. A 96-tip pipettor/fluorometric imaging plate reader (FLIPR 384; Molecular Devices) was used and intracellular calcium mobilization was measured by increases in fluorescence upon agonist Quisqualate stimulation following 6 sec-baseline measurement. Test compounds were added 10 minutes before Quisqualate. IC50 determinations for tested compounds were generated against Quisqualate 1 μM corresponding to EC80 value in a standard dose response curve.
A general note: Calcium assays in cells follow changes in intracellular calcium, usually with a dye or a luminescent sensor.

For orientation: IC50 means the point on the concentration scale where inhibition reaches its midpoint.

Read-outs that look alike come from different tables or passages of the source.

T1 sequence (Q13255 19-1194): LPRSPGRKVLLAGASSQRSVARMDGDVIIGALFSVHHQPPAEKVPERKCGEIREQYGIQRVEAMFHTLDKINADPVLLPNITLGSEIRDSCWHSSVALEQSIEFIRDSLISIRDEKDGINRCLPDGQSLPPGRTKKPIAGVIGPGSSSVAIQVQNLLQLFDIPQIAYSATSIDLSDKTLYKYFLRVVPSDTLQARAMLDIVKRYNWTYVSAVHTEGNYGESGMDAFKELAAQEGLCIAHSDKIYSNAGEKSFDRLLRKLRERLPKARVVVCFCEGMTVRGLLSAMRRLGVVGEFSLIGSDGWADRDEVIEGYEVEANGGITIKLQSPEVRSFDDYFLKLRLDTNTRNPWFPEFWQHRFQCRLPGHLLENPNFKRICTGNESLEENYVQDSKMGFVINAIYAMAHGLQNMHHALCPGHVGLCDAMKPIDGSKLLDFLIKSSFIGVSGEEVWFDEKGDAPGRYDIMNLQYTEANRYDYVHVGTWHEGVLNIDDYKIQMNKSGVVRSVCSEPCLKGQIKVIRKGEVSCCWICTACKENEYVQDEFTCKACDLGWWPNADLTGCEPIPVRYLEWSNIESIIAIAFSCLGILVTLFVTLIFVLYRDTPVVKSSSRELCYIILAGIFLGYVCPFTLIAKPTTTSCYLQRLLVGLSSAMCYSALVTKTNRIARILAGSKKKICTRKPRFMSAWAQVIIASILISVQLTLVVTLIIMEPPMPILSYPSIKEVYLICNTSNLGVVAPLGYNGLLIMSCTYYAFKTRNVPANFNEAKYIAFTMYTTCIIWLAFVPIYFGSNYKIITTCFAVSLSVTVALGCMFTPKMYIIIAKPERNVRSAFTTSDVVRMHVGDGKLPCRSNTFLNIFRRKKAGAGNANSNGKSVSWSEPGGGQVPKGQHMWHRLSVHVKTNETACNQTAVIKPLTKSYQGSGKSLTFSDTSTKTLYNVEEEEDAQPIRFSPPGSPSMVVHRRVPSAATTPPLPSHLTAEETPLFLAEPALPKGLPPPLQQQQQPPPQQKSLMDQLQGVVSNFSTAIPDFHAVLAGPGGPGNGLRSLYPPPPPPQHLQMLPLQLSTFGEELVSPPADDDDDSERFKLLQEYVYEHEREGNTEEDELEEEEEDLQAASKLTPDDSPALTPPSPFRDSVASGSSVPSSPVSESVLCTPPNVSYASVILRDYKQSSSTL

As to `COc1ccc(-n2ncc3c(sc4ncnc(NC5CC5)c43)c2=O)cc1` [Compound 35B], the IC50 (read-out: mGluR1 IC50 rating) was in the range of 20 to 100 nM. As for `COc1ccc(-n2ncc3c(sc4ncnc(OC)c43)c2=O)cc1` [Compound 34B], the IC50 (read-out: mGluR1 IC50 rating) is 100 to 1000 nM.

As to `COc1ccc(-n2ncc3c(sc4nccc(N(C)C)c43)c2=O)cc1` [Compound 9B], the IC50 is, setting by setting: (read-out: mGluR1 IC50) 4.5 nM; (read-out: mGluR1 IC50 rating) below 20 nM. In the same order, the values of `COc1ccnc2sc3c(=O)n(-c4ccc(C)cc4)ncc3c12` [Compound 21C] are 12.8 nM and below 20 nM. On to `O=c1c2sc3nccc(NCCO)c3c2cnn1-c1ccc(Cl)cc1` [Compound 23D], for which, for the setting “read-out: mGluR1 IC50 rating”, the IC50 lay in the range of 20 to 100 nM. As to `C#CCNc1ccnc2sc3c(=O)n(-c4ccc(C)cc4)ncc3c12` [Compound 23S], the IC50 (read-out: mGluR1 IC50 rating) fell in the range of 20 to 100 nM.

For `C#CCNc1ccnc2sc3c(=O)n(-c4ccc(OC)cc4)ncc3c12` [Compound 23M], under “read-out: mGluR1 IC50 rating”, the IC50 fell in the range of 100 to 1000 nM.

In the case of `O=c1c2sc3nccc(NC4CC4)c3c2cnn1-c1ccc(Cl)cc1` [Compound 23A], the IC50 (read-out: mGluR1 IC50) was determined as 13.7 nM and the IC50 (read-out: mGluR1 IC50 rating) was below 20 nM. As for `COc1ncnc2sc3c(=O)n(-c4ccc(Cl)cc4)ncc3c12` [Compound 34A], where the note is “read-out: mGluR1 IC50 rating”, the concentration for half-maximal inhibition (IC50) was in the range of 20 to 100 nM. For the compound `Cc1n[nH]c(=O)c2sc3nccc(N(C)C)c3c12` [Compound 13A], the IC50 (read-out: mGluR1 IC50 rating) is above 1000 nM. Regarding `COc1ccnc2sc3c(=O)n(-c4ccc(Cl)cc4)ncc3c12` [Compound 21A], for the setting “read-out: mGluR1 IC50 rating”, the IC50 was in the range of 20 to 100 nM. Consider `Cc1nn(C2CCCCC2)c(=O)c2sc3nccc(N(C)C)c3c12` [Compound 13C], for which the IC50 (read-out: mGluR1 IC50 rating) was above 1000 nM.

With `CN(C)c1ccnc2sc3c(=O)n(-c4ccc(Br)cc4)ncc3c12` [Compound 9D], the half-maximal inhibitory concentration (IC50) is, setting by setting: (read-out: mGluR1 IC50) 2.9 nM; (read-out: mGluR1 IC50 rating) below 20 nM. For the compound `CNc1ccnc2sc3c(=O)n(-c4ccc(OC)cc4)ncc3c12` [Compound 23N], the concentration for half-maximal inhibition (IC50) (read-out: mGluR1 IC50 rating) lay in the range of 20 to 100 nM. In the case of `Cc1ccc(-n2ncc3c(sc4nccc(NC5CC5)c43)c2=O)cc1` [Compound 23G], the IC50 is, setting by setting: (read-out: mGluR1 IC50) 18.5 nM; (read-out: mGluR1 IC50 rating) below 20 nM. Consider `COc1ccc(-n2ncc3c(sc4nccc(NCCO)c43)c2=O)cc1` [Compound 23F], for which, for the setting “read-out: mGluR1 IC50 rating”, the IC50 lay in the range of 100 to 1000 nM.

Regarding `CCNc1ccnc2sc3c(=O)n(-c4ccc(OC)cc4)ncc3c12` [Compound 23O], the 50% inhibitory concentration (IC50) (read-out: mGluR1 IC50 rating) lay in the range of 100 to 1000 nM. `CNc1ccnc2sc3c(=O)n(-c4ccc(Cl)cc4)ncc3c12` [Compound 23C]: the half-maximal inhibitory concentration (IC50) (read-out: mGluR1 IC50 rating) is below 20 nM.

In the case of `COc1ccc(-n2ncc3c(sc4nccc(NC5CC5)c43)c2=O)cc1` [Compound 23B], the half-maximal inhibitory concentration (IC50) (read-out: mGluR1 IC50 rating) lay within 100 to 1000 nM. Same read-out and setting: the result for `CNc1ccnc2sc3c(=O)n(-c4ccc(C)cc4)ncc3c12` [Compound 23Q] reads 20 to 100 nM. Consider `Cc1ccc(-n2ncc3c(sc4nccc(N(C)C)c43)c2=O)cc1` [Compound 9A], for which the IC50 by setting is: (read-out: mGluR1 IC50) 3.6 nM; (read-out: mGluR1 IC50 rating) below 20 nM. Turning to `CN(C)c1ccnc2sc3c(=O)n(-c4ccc(Cl)cc4)ncc3c12` [Compound 9C], the IC50 was 2.4 nM (read-out: mGluR1 IC50) and below 20 nM (read-out: mGluR1 IC50 rating). Consider `COCCNc1ccnc2sc3c(=O)n(-c4ccc(OC)cc4)ncc3c12` [Compound 23E], for which the IC50 (read-out: mGluR1 IC50 rating) is above 1000 nM.

Turning to `CN(C)c1ccnc2sc3c(=O)n(-c4ccc5scnc5c4)ncc3c12` [Compound 9E], the 50% inhibitory concentration (IC50) is, setting by setting: (read-out: mGluR1 IC50) 4.3 nM; (read-out: mGluR1 IC50 rating) below 20 nM.

Take `CNc1ncnc2sc3c(=O)n(-c4ccc(OC)cc4)ncc3c12` [Compound 35C]: the IC50 (read-out: mGluR1 IC50 rating) was 100 to 1000 nM. `Cc1ccc(-n2nc(C)c3c(sc4nccc(N(C)C)c43)c2=O)cc1` [Compound 13B]: where the note is “read-out: mGluR1 IC50 rating”, the IC50 is above 1000 nM. For `CCNc1ccnc2sc3c(=O)n(-c4ccc(C)cc4)ncc3c12` [Compound 23R], the IC50 is, setting by setting: (read-out: mGluR1 IC50) 18 nM; (read-out: mGluR1 IC50 rating) below 20 nM. Turning to `CCNc1ccnc2sc3c(=O)n(-c4ccc(Cl)cc4)ncc3c12` [Compound 23K], under “read-out: mGluR1 IC50 rating”, the IC50 lay within 20 to 100 nM.

Consider `CN(C)c1ccnc2sc3c(=O)n(C4CCCCC4)ncc3c12` [Compound 9G], for which, under “read-out: mGluR1 IC50 rating”, the IC50 is 20 to 100 nM. For the compound `COc1ccc(-n2ncc3c(sc4nccc(N(C)N)c43)c2=O)cc1` [Compound 23I], the IC50 is 3.6 nM (read-out: mGluR1 IC50) and below 20 nM (read-out: mGluR1 IC50 rating). Consider `O=c1c2sc3nccc(NC4CCC4)c3c2cnn1-c1ccc(Cl)cc1` [Compound 23J], for which, under “read-out: mGluR1 IC50 rating”, the 50% inhibitory concentration (IC50) lay within 100 to 1000 nM.

On to `COc1ccc(-n2ncc3c(sc4nccc(N5CCC5)c43)c2=O)cc1` [Compound 23L], for which the IC50 (read-out: mGluR1 IC50 rating) fell in the range of 100 to 1000 nM.

With `Cc1ccc(-n2ncc3c(sc4nccc(NCCO)c43)c2=O)cc1` [Compound 23H], the half-maximal inhibitory concentration (IC50) (read-out: mGluR1 IC50 rating) was 100 to 1000 nM.

As to `COc1ccc(-n2nc(C)c3c(sc4nccc(N(C)C)c43)c2=O)cc1` [Compound 13D], the IC50 (read-out: mGluR1 IC50 rating) is above 1000 nM.

With `CCNc1ncnc2sc3c(=O)n(-c4ccc(OC)cc4)ncc3c12` [Compound 35A], the concentration for half-maximal inhibition (IC50) (read-out: mGluR1 IC50 rating) is 100 to 1000 nM. Turning to `CN(C)c1ccnc2sc3c(=O)n(-c4ccc5ncsc5c4)ncc3c12` [Compound 9F], the IC50 reads like this: (read-out: mGluR1 IC50) 7.8 nM; (read-out: mGluR1 IC50 rating) below 20 nM. For the compound `COc1ccc(-n2ncc3c(sc4nccc(N5CC(O)C5)c43)c2=O)cc1` [Compound 23P], the IC50 (read-out: mGluR1 IC50 rating) lay within 100 to 1000 nM.

Turning to `COc1ccc(-n2ncc3c(sc4nccc(OC)c43)c2=O)cc1` [Compound 21B], under “read-out: mGluR1 IC50 rating”, the half-maximal inhibitory concentration (IC50) was in the range of 20 to 100 nM.

For the origin of these results see patent US7687501B2, “Pyridothienopyridazinone derivatives as mGluR1 antagonists” (Schering Corporation, priority 2005, dated 2010).
